Reference: patent US10294202B2, “Pyrrolidinones as herbicides” (FMC Corporation, priority 2013, dated 2019)

Legend:
crabgrass, large = experiment: Test E preemergence herbicide test; assay type: in vivo, Digitaria sanguinalis; design: key: 0 = no effect, 100 = complete control
Outline: (§1)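 Greenhouse preemergence test: seeds sown into silt loam received compound in a non-phytotoxic solvent mixture with surfactant. Plants grew 21 days before visual comparison with controls. Scores run from 0, no effect, to 100, complete control.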

lambsquarters = experiment: Test E preemergence herbicide test; assay type: in vivo, Chenopodium album; design: key: 0 = no effect, 100 = complete control
Outline: as §1

nightshade = experiment: Test E preemergence herbicide test; assay type: in vivo, Solanum ptycanthum; design: key: 0 = no effect, 100 = complete control
Outline: as §1

morningglory = experiment: Test E preemergence herbicide test; assay type: in vivo, Ipomoea coccinea; design: key: 0 = no effect, 100 = complete control
Outline: as §1

barnyardgrass = experiment: Test E preemergence herbicide test; assay type: in vivo, Echinochloa crus-galli; design: key: 0 = no effect, 100 = complete control
Outline: as §1

foxtail, green = experiment: Test D pre-/postemergence herbicide test; assay type: in vivo, Setaria viridis; conditions: for Plant response rating: Foxtail, Green, scale 0 to 100; for Plant response rating, Foxtail, Green: scale 0 to 100 (0 no effect, 100 complete control)
Outline: (§2)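 Test chemicals in a non-phytotoxic solvent with surfactant were applied preemergence to seeds in silt loam soil and postemergence to plants at 2-18 cm (1- to 4-leaf stage) in peat-based medium. After 7 to 21 days in a controlled environment, injury was rated visually versus controls on a 0-100 scale (100 = complete control).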

barley, spring = experiment: Test D pre-/postemergence herbicide test; assay type: in vivo, Hordeum vulgare; conditions: for Plant response rating: Barley, Spring, scale 0 to 100; for Plant response rating, Barley, Spring: scale 0 to 100 (0 no effect, 100 complete control)
Outline: as §2

barley, winter = experiment: Test D pre-/postemergence herbicide test; assay type: in vivo, Hordeum vulgare; conditions: for Plant response rating: Barley, Winter, scale 0 to 100; for Plant response rating, Barley, Winter: scale 0 to 100 (0 no effect, 100 complete control)
Outline: as §2

ryegrass, Italian = experiment: Test E preemergence herbicide test; assay type: in vivo, Lolium multiflorum; design: key: 0 = no effect, 100 = complete control
Outline: as §1

field bindweed = experiment: Test E preemergence herbicide test; assay type: in vivo, Convolvulus arvensis; design: key: 0 = no effect, 100 = complete control
Outline: as §1

mustard, wild = experiment: Test D pre-/postemergence herbicide test; assay type: in vivo, Sinapis arvensis; conditions: for Plant response rating: Mustard, Wild, scale 0 to 100; for Plant response rating, Mustard, Wild: scale 0 to 100 (0 no effect, 100 complete control)
Outline: as §2

O=C1NCC(c2ccc(C(F)(F)F)cc2)C1C(=O)Nc1cccc(F)c1F (centres unmarked) [Compound 80, N-(2,3-difluorophenyl)-2-oxo-4-[4-(trifluoromethyl)phenyl]-3-pyrrolidinecarboxamide]
Plant response rating, Crabgrass, Large (crabgrass, large; 16 g ai/ha): 50
Plant response rating, Crabgrass, Large (crabgrass, large; 31 g ai/ha): 90
Plant response rating, Crabgrass, Large (crabgrass, large; 62 g ai/ha): 95
Plant response rating, Crabgrass, Large (crabgrass, large; 125 g ai/ha): 95
Plant response rating, Crabgrass, Large (crabgrass, large; 250 g ai/ha): 95
Plant response rating, Lambsquarters (lambsquarters; 16 g ai/ha): 50
Plant response rating, Lambsquarters (lambsquarters; 31 g ai/ha): 80
Plant response rating, Lambsquarters (lambsquarters; 62 g ai/ha): 85
Plant response rating, Lambsquarters (lambsquarters; 125 g ai/ha): 90
Plant response rating, Lambsquarters (lambsquarters; 250 g ai/ha): 90
Plant response rating, Nightshade (nightshade; 16 g ai/ha): 50
Plant response rating, Nightshade (nightshade; 62 g ai/ha): 60
Plant response rating, Nightshade (nightshade; 125 g ai/ha): 70
Plant response rating, Nightshade (nightshade; 250 g ai/ha): 70
Plant response rating, Morningglory (morningglory; 16 g ai/ha): 0
Plant response rating, Morningglory (morningglory; 31 g ai/ha): 0
Plant response rating, Morningglory (morningglory; 62 g ai/ha): 0
Plant response rating, Morningglory (morningglory; 125 g ai/ha): 20
Plant response rating, Morningglory (morningglory; 250 g ai/ha): 40
Plant response rating, Barnyardgrass (barnyardgrass; 16 g ai/ha): 0
Plant response rating, Barnyardgrass (barnyardgrass; 31 g ai/ha): 20
Plant response rating, Barnyardgrass (barnyardgrass; 62 g ai/ha): 50
Plant response rating, Barnyardgrass (barnyardgrass; 125 g ai/ha): 75
Plant response rating, Barnyardgrass (barnyardgrass; 250 g ai/ha): 80
Plant response rating (foxtail, green; Postemergence, 31 g ai/ha): 45
Plant response rating (foxtail, green; Postemergence, 62 g ai/ha): 45
Plant response rating (foxtail, green; Postemergence, 125 g ai/ha): 65
Plant response rating (foxtail, green; Postemergence, 250 g ai/ha): 65
Plant response rating, Foxtail, Green (foxtail, green; Preemergence, 62 g ai/ha): 65
Plant response rating, Foxtail, Green (foxtail, green; Preemergence, 31 g ai/ha): 20
Plant response rating (foxtail, green; Preemergence, 125 g ai/ha): 75
Plant response rating (foxtail, green; Preemergence, 250 g ai/ha): 80
Plant response rating (barley, spring; Postemergence, 31 g ai/ha): 0
Plant response rating (barley, spring; Postemergence, 62 g ai/ha): 0
Plant response rating (barley, spring; Postemergence, 125 g ai/ha): 0
Plant response rating (barley, spring; Postemergence, 250 g ai/ha): 0
Plant response rating, Barley, Spring (barley, spring; Preemergence, 62 g ai/ha): 10
Plant response rating, Barley, Spring (barley, spring; Preemergence, 31 g ai/ha): 0
Plant response rating (barley, spring; Preemergence, 125 g ai/ha): 15
Plant response rating (barley, spring; Preemergence, 250 g ai/ha): 30
Plant response rating (barley, winter; Postemergence, 31 g ai/ha): 0
Plant response rating (barley, winter; Postemergence, 62 g ai/ha): 0
Plant response rating (barley, winter; Postemergence, 125 g ai/ha): 0
Plant response rating (barley, winter; Postemergence, 250 g ai/ha): 0
Plant response rating, Barley, Winter (barley, winter; Preemergence, 62 g ai/ha): 5
Plant response rating, Barley, Winter (barley, winter; Preemergence, 31 g ai/ha): 0
Plant response rating (barley, winter; Preemergence, 125 g ai/ha): 15
Plant response rating (barley, winter; Preemergence, 250 g ai/ha): 25
Plant response rating, Ryegrass, Italian (ryegrass, Italian; 16 g ai/ha): 0
Plant response rating, Ryegrass, Italian (ryegrass, Italian; 31 g ai/ha): 0
Plant response rating, Ryegrass, Italian (ryegrass, Italian; 62 g ai/ha): 0
Plant response rating, Ryegrass, Italian (ryegrass, Italian; 125 g ai/ha): 45
Plant response rating, Ryegrass, Italian (ryegrass, Italian; 250 g ai/ha): 60
Plant response rating, Field Bindweed (field bindweed; 16 g ai/ha): 0
Plant response rating, Field Bindweed (field bindweed; 31 g ai/ha): 0
Plant response rating, Field Bindweed (field bindweed; 62 g ai/ha): 0
Plant response rating, Field Bindweed (field bindweed; 125 g ai/ha): 0
Plant response rating, Field Bindweed (field bindweed; 250 g ai/ha): 0
Plant response rating (mustard, wild; Postemergence, 31 g ai/ha): 70
Plant response rating (mustard, wild; Postemergence, 62 g ai/ha): 80
Plant response rating (mustard, wild; Postemergence, 125 g ai/ha): 85
Plant response rating (mustard, wild; Postemergence, 250 g ai/ha): 85
Plant response rating, Mustard, Wild (mustard, wild; Preemergence, 62 g ai/ha): 25
Plant response rating, Mustard, Wild (mustard, wild; Preemergence, 31 g ai/ha): 0
Plant response rating (mustard, wild; Preemergence, 125 g ai/ha): 65
Plant response rating (mustard, wild; Preemergence, 250 g ai/ha): 70

O=C1NC[C@H](c2cccc(C(F)(F)F)c2)[C@H]1C(=O)Nc1ccccc1F [Compound 204, (3R,4S)—N-(2-fluorophenyl)-2-oxo-4-[3-(trifluoromethyl)phenyl]-3-pyrrolidinecarboxamide]
Plant response rating, Crabgrass, Large (crabgrass, large; 31 g ai/ha): 95
Plant response rating, Crabgrass, Large (crabgrass, large; 62 g ai/ha): 98
Plant response rating, Crabgrass, Large (crabgrass, large; 125 g ai/ha): 98
Plant response rating, Crabgrass, Large (crabgrass, large; 250 g ai/ha): 98
Plant response rating, Lambsquarters (lambsquarters; 31 g ai/ha): 98
Plant response rating, Lambsquarters (lambsquarters; 62 g ai/ha): 98
Plant response rating, Lambsquarters (lambsquarters; 125 g ai/ha): 90
Plant response rating, Lambsquarters (lambsquarters; 250 g ai/ha): 65
Plant response rating, Nightshade (nightshade; 31 g ai/ha): 0
Plant response rating, Nightshade (nightshade; 62 g ai/ha): 20
Plant response rating, Nightshade (nightshade; 125 g ai/ha): 100
Plant response rating, Nightshade (nightshade; 250 g ai/ha): 100
Plant response rating, Morningglory (morningglory; 31 g ai/ha): 0
Plant response rating, Morningglory (morningglory; 62 g ai/ha): 0
Plant response rating, Morningglory (morningglory; 125 g ai/ha): 20
Plant response rating, Morningglory (morningglory; 250 g ai/ha): 30
Plant response rating, Barnyardgrass (barnyardgrass; 31 g ai/ha): 20
Plant response rating, Barnyardgrass (barnyardgrass; 62 g ai/ha): 75
Plant response rating, Barnyardgrass (barnyardgrass; 125 g ai/ha): 98
Plant response rating, Barnyardgrass (barnyardgrass; 250 g ai/ha): 98
Plant response rating, Foxtail, Green (foxtail, green; Preemergence, 62 g ai/ha): 98
Plant response rating, Foxtail, Green (foxtail, green; Preemergence, 125 g ai/ha): 98
Plant response rating, Foxtail, Green (foxtail, green; Preemergence, 31 g ai/ha): 90
Plant response rating (foxtail, green; Preemergence, 250 g ai/ha): 100
Plant response rating, Barley, Spring (barley, spring; Preemergence, 62 g ai/ha): 15
Plant response rating, Barley, Spring (barley, spring; Preemergence, 125 g ai/ha): 20
Plant response rating, Barley, Spring (barley, spring; Preemergence, 31 g ai/ha): 0
Plant response rating (barley, spring; Preemergence, 250 g ai/ha): 45
Plant response rating, Barley, Winter (barley, winter; Preemergence, 62 g ai/ha): 20
Plant response rating, Barley, Winter (barley, winter; Preemergence, 125 g ai/ha): 25
Plant response rating, Barley, Winter (barley, winter; Preemergence, 31 g ai/ha): 0
Plant response rating (barley, winter; Preemergence, 250 g ai/ha): 35
Plant response rating, Ryegrass, Italian (ryegrass, Italian; 31 g ai/ha): 0
Plant response rating, Ryegrass, Italian (ryegrass, Italian; 62 g ai/ha): 0
Plant response rating, Ryegrass, Italian (ryegrass, Italian; 125 g ai/ha): 25
Plant response rating, Ryegrass, Italian (ryegrass, Italian; 250 g ai/ha): 30
Plant response rating, Field Bindweed (field bindweed; 31 g ai/ha): 0
Plant response rating, Field Bindweed (field bindweed; 62 g ai/ha): 0
Plant response rating, Field Bindweed (field bindweed; 125 g ai/ha): 0
Plant response rating, Field Bindweed (field bindweed; 250 g ai/ha): 30
Plant response rating, Mustard, Wild (mustard, wild; Preemergence, 62 g ai/ha): 20
Plant response rating, Mustard, Wild (mustard, wild; Preemergence, 125 g ai/ha): 20
Plant response rating, Mustard, Wild (mustard, wild; Preemergence, 31 g ai/ha): 0
Plant response rating (mustard, wild; Preemergence, 250 g ai/ha): 20
